ChEMBL document CHEMBL2029277, “Discovery of XL413, a potent and selective CDC7 inhibitor” (Bioorg Med Chem Lett, 2012)
pIC50: −log10 of the molar value.

Key:
[1] = biological target: T1, Cell division cycle 7-related protein kinase (Homo sapiens, UniProt O00311); test: Inhibition of N-terminus Myc-tagged human CDC7 expressed in Escherichia coli by chemiluminescence assay in presence of ATP
[2] = biological target: Serine/threonine-protein kinase pim-1 (Homo sapiens, UniProt P11309); test: Inhibition of N-terminus His-tagged human PIM1 expressed in Escherichia coli using AKRRRLSA as substrate after 1 to 2 hrs by chemiluminescence assay
Chain of Serine/threonine-protein kinase pim-1 (P11309 whole entry): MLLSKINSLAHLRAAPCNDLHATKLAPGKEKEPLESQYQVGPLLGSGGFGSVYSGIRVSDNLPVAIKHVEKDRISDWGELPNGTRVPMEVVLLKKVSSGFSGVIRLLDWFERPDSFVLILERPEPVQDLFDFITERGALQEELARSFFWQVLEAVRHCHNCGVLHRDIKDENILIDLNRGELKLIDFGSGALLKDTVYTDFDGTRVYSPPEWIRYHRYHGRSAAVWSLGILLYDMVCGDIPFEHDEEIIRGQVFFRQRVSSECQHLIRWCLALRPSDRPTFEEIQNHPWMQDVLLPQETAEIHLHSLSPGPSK

[3] = biological target: Casein kinase II alpha/beta (Homo sapiens, UniProt P68400); test: Inhibition of human tertrameric CK2alphabeta holoenzyme using casein as substrate after 1 to 2 hrs by chemiluminescence assay in presence of 2 uM ATP; assay type: protein-complex assay
Chain of Casein kinase II alpha/beta (P67870 whole entry): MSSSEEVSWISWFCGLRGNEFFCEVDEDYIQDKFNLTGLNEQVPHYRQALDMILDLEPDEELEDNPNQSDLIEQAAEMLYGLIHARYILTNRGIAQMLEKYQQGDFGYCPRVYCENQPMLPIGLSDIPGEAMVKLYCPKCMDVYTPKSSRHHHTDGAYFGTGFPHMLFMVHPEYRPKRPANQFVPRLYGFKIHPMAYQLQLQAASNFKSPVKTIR
Chain of Casein kinase II alpha/beta (P68400 whole entry): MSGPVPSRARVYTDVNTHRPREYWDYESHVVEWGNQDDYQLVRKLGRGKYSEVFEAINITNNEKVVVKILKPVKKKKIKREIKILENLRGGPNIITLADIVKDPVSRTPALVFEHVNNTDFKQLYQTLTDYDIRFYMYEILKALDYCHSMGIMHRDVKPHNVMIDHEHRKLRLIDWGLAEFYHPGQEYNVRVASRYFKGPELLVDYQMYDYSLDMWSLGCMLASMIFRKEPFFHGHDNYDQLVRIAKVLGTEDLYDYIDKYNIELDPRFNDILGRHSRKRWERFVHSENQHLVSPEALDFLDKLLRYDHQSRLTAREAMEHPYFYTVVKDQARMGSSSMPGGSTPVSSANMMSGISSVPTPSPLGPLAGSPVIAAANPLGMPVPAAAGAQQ

[4] = biological target: T1, Cell division cycle 7-related protein kinase; test: Inhibition of CDC7 in human MDA-MB-231T cells assessed as inhibition of MCM2 phosphorylation at Ser53 after 4 hrs; assay type: cell-based
[5] = Plasma concentration in mouse at 100 mg/kg, po measured after 4 hrs; assay type: ADME, organism-based; set-up: dose 100 mg/kg, route oral
[6] = Plasma concentration in mouse at 100 mg/kg, po measured after 1 hr; assay type: ADME, organism-based; set-up: dose 100 mg/kg, route oral

T1 sequence (O00311 whole entry): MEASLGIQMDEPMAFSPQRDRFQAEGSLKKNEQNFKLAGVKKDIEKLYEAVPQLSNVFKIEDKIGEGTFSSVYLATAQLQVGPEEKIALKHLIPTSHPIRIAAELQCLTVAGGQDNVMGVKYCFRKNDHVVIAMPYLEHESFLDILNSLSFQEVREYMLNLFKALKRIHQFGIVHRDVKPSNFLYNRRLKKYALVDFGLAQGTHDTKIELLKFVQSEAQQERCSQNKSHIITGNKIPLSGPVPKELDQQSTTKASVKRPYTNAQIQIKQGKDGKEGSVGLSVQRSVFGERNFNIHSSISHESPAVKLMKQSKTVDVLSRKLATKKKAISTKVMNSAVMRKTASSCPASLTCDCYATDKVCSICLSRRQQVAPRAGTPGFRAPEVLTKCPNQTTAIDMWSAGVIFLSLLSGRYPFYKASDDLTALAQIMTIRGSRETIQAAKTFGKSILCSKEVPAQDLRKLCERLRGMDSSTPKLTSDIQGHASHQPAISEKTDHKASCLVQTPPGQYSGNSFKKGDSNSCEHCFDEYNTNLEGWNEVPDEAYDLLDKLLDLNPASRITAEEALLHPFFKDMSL

pIC50 [1]	pIC50 [2]	pIC50 [3]	pIC50 [4]	concentration at 4 h [5] [µM]	concentration at 1 h [6] [µM]	Structure (SMILES)
8.11	7.74	7.37	5.60	–	–	O=c1[nH]c(C2CNC2)nc2c1oc1ccc(Br)cc12
8.32	7.51	7.04	7.12	71	195	O=c1[nH]c([C@@H]2CCCN2)nc2c1oc1ccc(Br)cc12
7.82	7.41	6.76	5.63	–	–	O=c1[nH]c(C2CCCNC2)nc2c1oc1ccc(Br)cc12 (racemic)
8.41	6.99	6.13	6.53	–	–	COc1ccc2oc3c(=O)[nH]c([C@@H]4C[C@@H](F)CN4)nc3c2c1
8.04	7.14	6.38	6.36	–	–	O=c1[nH]c([C@@H]2C[C@@H](O)CN2)nc2c1oc1ccc(Br)cc12
–	–	–	–	49	101	O=c1[nH]c(CN2CC[C@H](O)C2)nc2c1oc1ccc(Br)cc12
